The test system of data set [1] is AR42J tumor. As to the kind of experiment: Dynamic PET, tumor uptake (SUV) in AR42J tumor-bearing nude rats. As to conditions: for SUV (standardized uptake value) in tumor: 55 to 60 min post-injection, i.v. 20 to 40 MBq (BZH3, n = 5), 10 to 30 MBq (RGD4, n = 4), nude rats. In kind it is in vivo, rat. The source says:
(§1) Irregular regions of interest were drawn manually.

Test in data set [2]: as above
It is filed as in vivo, rat. As to conditions: rat, in vivo, iv, i.v. 20 to 40 MBq (BZH3, n = 5), 10 to 30 MBq (RGD4, n = 4), nude rats, read-out: SUV (standardized uptake value) in tumor.
Text: as §1

The conditions of data set [3]: 3D fused PET-CT images; male rat. The method, then: The study included nine AR 42 J tumor-bearing nude rats. We grouped all rats according to PET tracers (B, ^68Ga-BZH3 and R, ^68Ga-RGD4), used in dynamic PET scanning, as noted in Table 1. Dynamic PET studies were performed for 60 min after the intravenous application of 10 to 30 MBq ^68Ga-RGD4 or 20 to 40 MBq ^68Ga-BZH3, using a 28-frame protocol (ten frames of 30 s, five frames of 60 s, five frames of 120 s, and eight frames of 300 s). Two animals can be examined in parallel per scanning by a homemade injector (Figure 2). A dedicated PET-CT system (Biograph™ mCT, 128 S/X, Siemens Co, Erlangen, Germany) with an axial field of view of 21.6 cm with TrueV, operated in a three-dimensional mode, was used for all animal studies. The system provides the simultaneous acquisition of 369 transverse slices with a slice thickness of 0.6 mm. The animals were positioned in the axial plane of the system to maintain the best resolution in the center of the system. […] The SUV images were used for all further quantitative evaluations.
Dynamic PET data were evaluated using the software package PMOD (provided courtesy of PMOD Technologies Ltd., Zuerich, Switzerland). Areas with enhanced tracer uptake on transaxial, coronal, and sagittal images were evaluated visually. […] A detailed quantitative evaluation of tracer kinetics requires the use of compartmental modeling. […]

The subject of data set [4] is gastrointestinal stromal tumors. As to conditions: ref [15], cited from earlier work. The source says:
Bombesin and the two mammalian bombesin-like peptides, […] regulate many biologic response processes through activation of distinct receptor subtypes, including modulation of smooth muscle contraction, secretion of neuropeptides and hormones, as well as stimulation of cell growth. Activation of neuromedin B (BB1) receptors has been reported in various human cancers.

Data set [5] relates to gliomas. As to conditions: compared with ^68Ga-DOTATOC in meningiomas, ref [47]; cited from earlier work. The source says: Concerning the ^68Ga-BZH3 kinetics, k1 is a parameter that reflects the receptor binding and k3 is a parameter that reflects the internalization of the tracer.
For data set [6], the system named is AR42J tumor. As to conditions: for VB (vessel density, fractional blood volume) / K1 (transport into the cell; associated with receptor binding) / RBP (receptor binding potential) / k2 (displacement from the receptor) / k3 (cellular internalisation) / k4 (externalization): AR42J tumor-bearing nude rats, n = 5 (BZH3), n = 4 (RGD4); for VB (vessel density, fractional blood volume): dynamic PET 60 min, i.v. How it is done: The AR42J cell line, derived from a rat exocrine pancreas neuroendocrine tumor, was used. Cells were obtained from the European Collection of Cell Cultures and were grown in RPMI 1640 medium supplemented with 2 mmol/L glutamine and 10% fetal calf serum. Adherent cells were dislodged with trypsin/ethylenediaminetetraacetic acid (0.02%: 0.05%, w/v). For PET-studies, 5 × 10^6 cells in 200 μl RPMI without supplements were inoculated subcutaneously in the right hind leg of Wistar rats.
The study included nine AR 42 J tumor-bearing nude rats. We grouped all rats according to PET tracers (B, ^68Ga-BZH3 and R, ^68Ga-RGD4), used in dynamic PET scanning, as noted in Table 1. Dynamic PET studies were performed for 60 min after the intravenous application of 10 to 30 MBq ^68Ga-RGD4 or 20 to 40 MBq ^68Ga-BZH3, using a 28-frame protocol (ten frames of 30 s, five frames of 60 s, five frames of 120 s, and eight frames of 300 s). Two animals can be examined in parallel per scanning by a homemade injector (Figure 2). A dedicated PET-CT system (Biograph™ mCT, 128 S/X, Siemens Co, Erlangen, Germany) with an axial field of view of 21.6 cm with TrueV, operated in a three-dimensional mode, was used for all animal studies. The system provides the simultaneous acquisition of 369 transverse slices with a slice thickness of 0.6 mm. The animals were positioned in the axial plane of the system to maintain the best resolution in the center of the system. All PET images were attenuation-corrected and an image matrix of 400 × 400 pixels was used for iterative image reconstruction (voxel size 1.565 × 1.565 × 0.6 mm) based on the syngo MI PET/CT 2009C software version. After the end of the dynamic series an ultrahigh resolution CT with 85 mA, 80 kV and a pitch of 0.85 cm was performed for attenuation correction of the acquired dynamic emission data. The reconstructed images were converted to SUV images based on the formula [24]: SUV = Tissue concentration (becquerel per gram)/[injected dose ([…]))/body weight (gram)]. The SUV 55 to 60 min post-injection was used for the assessment of both tracers. The SUV images were used for all further quantitative evaluations.
Dynamic PET data were evaluated using the software package PMOD (provided courtesy of PMOD Technologies Ltd., Zuerich, Switzerland). Areas with enhanced tracer uptake on transaxial, coronal, and sagittal images were evaluated visually. A volume of interest consists of several regions of interest over the target area. Irregular regions of interest were drawn manually. A detailed quantitative evaluation of tracer kinetics requires the use of compartmental modeling. A two-tissue-compartment model was used to evaluate the dynamic studies.
In animals, a partial volume correction must be applied to the data due to the small size of the input and tumor volumes of interest (VOIs). Herein, the recovery coefficient was 0.85 for a diameter of 8 mm and 0.32 for a diameter of 3 mm based on phantom measurements as well as the recent parameter settings used with the reconstruction software. For the input function the mean values of the VOI data obtained from the heart were used. We used a preprocessing tool, which allowed a fit of the input curve by a sum of up to three decaying exponentials. The learning-machine two-tissue-compartment model was used for the fitting and provided five parameters: the transport parameters for tracer into and out of the cell, K1 and k2, the parameters for phosphorylation and dephosphorylation of intracellular tracer, k3 and k4, and the fractional blood volume, also called vessel density (VB), which reflects the amount of blood in the VOI. Following compartment analysis, we calculated the global influx of tracer from the compartment data using the formula: influx = (K1 × k3)/(k2 + k3). […] The model parameters were accepted when K1 - k4 was less than 1 and VB exceeded 0. The unit for the rate constants K1 to k4 was 1/min.

Data set [7] deals with BB1 (Neuromedin B). As to conditions: background statement; no reference given; cited from earlier work. The source says: (§2) Objectives Receptor scintigraphy gains more interest for diagnosis and treatment of tumors, in particular for neuroendocrine tumors (NET). We used a pan-Bombesin analog, the peptide DOTA-PEG2-[D-tyr^6, β-Ala^11, Thi^13, Nle^14] BN(6-14) amide (BZH3). BZH3 binds to at least three receptor subtypes: the BB1 (Neuromedin B), BB2 (Gastrin-releasing peptide, GRP), and BB3. Imaging of ανβ3 integrin expression playing an important role in angiogenesis and metastasis was accomplished with a ^68Ga-RGD tetramer. […] We have reported ^68Ga-labeled bombesin may be helpful for diagnostic reasons in a subgroup of patients ...

Data set [8] relates to gastrin-releasing peptide receptor (GRP-r, also known as BB2). As to conditions: background statement; no reference given; cited from earlier work.
Text: as §2

Data set [9] concerns bombesin receptor subtype (BB3). As to conditions: background statement; no reference given; cited from earlier work.
Text: as §2

Where [10] appears, read: median, between tracers P 0.05*.

“Also recorded” adds a separate entry of the source. Like-named read-outs stand apart in the source and are kept apart here. Square brackets hold non-standard residues; d marks the D form. Peptide text beside a SMILES is read from it. * marks the point of attachment. DOTA = O=C(O)CN1CCN(CC(=O)O)CCN(CC(=O)*)CCN(CC(=O)O)CC1; 2Thi = N[C@@H](Cc1cccs1)C(=O)O; Nle = CCCC[C@H](N)C(=O)O; AEEA = NCCOCCOCC(=O)O; βAla = NCCC(=O)O

Take `CCCC[C@H](NC(=O)[C@H](Cc1cccs1)NC(=O)[C@H](Cc1c[nH]cn1)NC(=O)CCNC(=O)[C@@H](NC(=O)[C@H](C)NC(=O)[C@H](Cc1c[nH]c2ccccc12)NC(=O)[C@H](CCC(N)=O)NC(=O)[C@@H](Cc1ccc(O)cc1)NC(=O)COCCOCCNC(=O)COCCOCCNC(=O)CN1CCN(CC(=O)O)CCN(CC(=O)O)CCN(CC(=O)O)CC1)C(C)C)C(N)=O` [^68Ga-BZH3, DOTA-PEG2-[D-Tyr^6 -β-Ala^11 -Thi^13 -Nle^14]BN(6-14) amide, metal not drawn] ({DOTA-AEEA-AEEA}-[dY]QWAV[βAla]H[2Thi][Nle]-NH2): in [1] (3D fused PET-CT image, tumor in lower leg), the “tumor visualisation” value is reported as “clearly showed enhanced ^68Ga-BZH3 uptake in the tumor area in the lower leg”. In addition, in data set [1] (^68Ga-BZH3 vs ^68Ga-RGD4, AR42J tumor-bearing nude rats), the “tumor uptake compared with the other tracer” value is reported as “generally higher than ^68Ga-RGD4 uptake; also recorded: higher than that of ^68Ga-RGD4”. The “SUV (standardized uptake value) in tumor” value is listed as 1.2884 in data set [1] (maximum) and 0.8628 in data set [1] (minimum). Further, the SUV came to 1.08 SUV in data set [2] (mean, 55 to 60 min post-injection) and 1.19 SUV in data set [2] (median, 55 (56) to 60 min post-injection, between tracers P 0.8065). Also, the “tracer uptake in other sites” value in data set [3] was “liver, kidney, urinary bladder, and testicles”. In [4], the “uptake compared with ^18F-FDG” value is listed as “lower than ^18F-FDG”. For the same compound, the “uptake in gastrointestinal stromal tumors” value in [4] (subgroup of patients) is listed as “enhanced ^68Ga-BZH3 uptake in a subgroup of patients with gastrointestinal stromal tumors”. Besides, the “internalization” value in data set [5] was “higher internalization”. Moreover, the “receptor binding” value in [5] was “lower receptor binding”. The “FD, VB, K1 and RBP compared between tracers” value in data set [6] (^68Ga-BZH3 vs ^68Ga-RGD tetramer) is “generally higher than the corresponding values for the ^68Ga-RGD tetramer”. Moreover, the “VB (vessel density, fractional blood volume)” value in data set [6] (maximum) came to 0.1646; in data set [6] (mean), 0.1037; in [6] (setting [10]) it was 0.0903; in [6] (minimum) it was 0.0603. The “K1 (transport into the cell; associated with receptor binding)” value in data set [6] (maximum) turned out to be 0.4862 min⁻¹; in [6] (mean), 0.3717 min⁻¹; in data set [6] (setting [10]), 0.3506 min⁻¹; in data set [6] (minimum), 0.3055 min⁻¹. Also, the “RBP (receptor binding potential)” value in data set [6] (maximum) is 0.1202; in data set [6] (mean) it was 0.0765; in data set [6] (median, between tracers P 0.0275*), 0.0607; in data set [6] (minimum), 0.0506. In addition, the “k2 (displacement from the receptor)” value in data set [6] (maximum) amounted to 0.6103 min⁻¹; in [6] (mean), 0.4808 min⁻¹; in data set [6] (median, between tracers P 0.4624) it was 0.5216 min⁻¹; in data set [6] (minimum), 0.2768 min⁻¹. For the same compound, the “k3 (cellular internalisation)” value in data set [6] (maximum) amounted to 0.2005 min⁻¹; in data set [6] (mean), 0.1235 min⁻¹; in data set [6] (median, between tracers P 0.8065) it was 0.1177 min⁻¹; in data set [6] (minimum), 0.0580 min⁻¹. Moreover, the “k4 (externalization)” value stood at 0.1746 min⁻¹ in [6] (maximum), 0.0986 min⁻¹ in [6] (mean), 0.1005 min⁻¹ in data set [6] (setting [10]) and 0.0493 min⁻¹ in data set [6] (minimum).

With Bombesin [reference compound], the “binding/affinity for BB1” value in data set [7] was “high affinity”. Also, the “binding/affinity for BB2” value in data set [8] is listed as “high affinity”. The “binding/affinity for BB3” value in data set [9] was “high affinity”.

Take “DOTA-PEG2-[D-Tyr^6 -β-Ala^11 -Thi^13 -Nle^14 ]BN(6-14) amide [BZH3, pan-Bombesin analog, unlabelled precursor]”: the “binding/affinity for BB1” value in [7] is given as “binds”. Further, in [8], the “binding/affinity for BB2” value was “binds”. Further, the “binding/affinity for BB3” value in data set [9] is on record as “binds”.

(Values after paper PMC3292467, “Comparison between ^68Ga-bombesin (^68Ga-BZH3) and the cRGD tetramer ^68Ga-RGD4 studies in an experimental nude rat model with a neuroendocrine pancreatic tumor cell line” (EJNMMI Research, 2011).)
